Assay results: patent US6833376B2, “5-aminoalkyl and 5-aminocarbonyl substituted indoles” (H. Lundbeck A/S, priority 1999, dated 2004)
Like-named read-outs stand apart in the source and are kept apart here.

Experiments:
α1-adrenoceptors = test: Inhibition of [3H]-prazosin binding to α1-adrenoceptors in rat brain in vitro; conditions: [3H]-prazosin 0.25 nM, membranes from rat brain
Protocol: Method and results in Hyttel & Larsen, J. Neurochem.
The tissue is homogenized (Ultra Turrax, 10 se) in 10 mL of ice cold 50 mM tris buffer pH 7.7 (at 25° C.). The homogenate is centiflged twice at 20,000 g for 10 min at 4° C. with rehomogenization of the pellet in 10 ml ice-cold buffer. The final pellet is homogenized in 250 vol (w/v) ice-cold buffer.
The binding experiment is initiated by addition of […] of tissue suspension (final tissue content corresponds to 3 mg original tissue) and by placing the 96 deep well titer plate in a 25° C. water bath. AU tests are made in triplicates. After incubation for 20 min, the samples are filtered on a Brandel harvester under vacuum (18 inch. Hg) through printed filtermat B (13 mm). Titerplates and filter are washed 1×10 sec flow 50 L/h with ice cold buffer.
The filter mat is dried for 1 h at 110° C. and then placed in a sample bag with Meltilex B/HS (14.5 g) and melted together on the T-Tray heat sealer.
(§1) For determination of the inhibition of binding, five concentrations of drugs covering 3 decades are used.

[1] = molecular target: T1, serotonin S2 (5HT2A) receptors (Rattus norvegicus, UniProt P14842); test: Inhibition of [3H]-ketanserin binding to serotonin S2 (5HT2A) receptors in rat cortex in vitro
T1 construct: rats (125-250 g) are sacrificed and cortical tissue is dissected and weighed; from tissue; host or cells: rat cortex membranes (male Wistar rats)
Protocol: INHIBITION OF [^3H]-KETANSERIN BINDING TO SEROTONIN S2 (5HT2A) RECEPTORS IN RAT CORTEX IN VITRO
By this method, the inhibition by drugs of the binding of [^3H]-ketanserin (0.5 nM) to serotonin S2 (5-HT2) receptors in membranes from rat cortex is determined in vitro.
The tissue is homogenized (Ultra Turrax, 10 sec) in 10 mL of ice cold 50 mM tris buffer pH 7.7 (at 25° C.). The centrifige glassware used in this step has been rinsed by sonication for 10 min in ethanol. The homogenate is centrifuged twice at 20,000 g for 10 min. at 4° C., with rehomogenization of the pellet in 10 mnL ice-cold buffer. The final pellet is homogenized in 250 vol (w/v) ice-cold buffer.
Incubation tubes (96 deep well titer plate) kept on ice receive 50 mL of [^3H]-ketanserin (final concentration 0.5 nM).
The binding experiment is initiated by addition of […] of tissue suspension (final tissue content corresponds to 4 mg original tissue) and by placing the 96 deep well titer plate in a 37° C. water bath. All tests are made in triplicates.
After incubation for 30 min, the samples are filtered on a Brandel harvester under vacuum (18 inch Hg) through printed filter mat B (13 mm). Titerplate and filter are washed 2×10 sec. flow 50L/h with ice cold buffer.
The printed filter mat with purred labelled tissue are dried for 1 h at 110° C. and hereafter placed in a sample bag with Meltilex B/HS 14.5 g and melted together on the T-tray heat seal.
Specific binding is obtained by subtracting the nonspecific binding in the presence of 1 mM mianserin.
as §1
[^3H]-ketanserin=(ethylene-^3H)-ketanserin hydrochloride from New England Nuclear, specific activity […].

dopamine D2 receptors = molecular target: T2, dopamine D2 receptors (Rattus norvegicus, UniProt P61169); test: Inhibition of [3H]-spiperone binding to dopamine D2 receptors in rat corpus striatum in vitro
T2 construct: rats (125-250 g) are sacrificed and striatal tissue is dissected and weighed; from tissue; host or cells: rat corpus striatum membranes (male Wistar rats)
Protocol: Inhibition of [^3H]-Spiperone Binding to Dopamnine D2 Receptors in Rat Corpus Striatum in vitro
By this method, the inhibition by drugs of the binding of [^3H]-spiperone (=^3H]-spiro-peridol) (0.5 nM) to dopamine D-2 receptors in membranes from rat corpus striatum is determined in vitro. […] PharmacoL. ToxicoL. […] This is a test for dopamnine D2 receptor binding affinity in vitro.
The tissue is homogenized (Ultra Turrax, 10 sec.) in 10 mL of ice-cold 50 mM K-phosphate buffer pH 7.4 (at 25° C.). The homogenate is centrifuiged twice at 20,000 g for 10 min at 4° C. with rehomogenization of the pellet in 10 mL ice-old buffer. The final pellet is homogenized in 1300 vol (w/v) ice-cold buffer.
The binding experiment is initiated by addition of 100 μl of [^3H]-spiperone (final concentration 0.5 nM) and by placing the tubes in a 37° C. water bath. […] The tubes are rinsed with 5 mL ice-old buffer which are then poured on the filters. Thereafter, the filters are washed with 2×5 mL of buffer. The filters are placed in counting vials and 4 mL of appropriate scintillation fluid (e.g. Picofluor™15) are added. After shaking for 1 h and storage for 2 hrs in the dark, the content of radioactivity is determined by liquid scintillation counting. Specific binding is obtained by subtracting the nonspecific binding in the presence of 10 μM of 6,7-ADTN.
For determination of the inhibition of binding, five concentrations of drugs covering 3 orders of magnitude are used.
[^3H]-Spiperone=[phenyl-4-^3H]-spiperone from Amersham International plc. England, specific activity 15-25 Ci/mmol.

[2] = [3H]-ketanserin 0.5 nM, membranes from rat cortex, read-out: IC50 values 5-HT2A
[3] = [3H]-spiperone 0.5 nM, membranes from rat corpus striatum, read-out: IC50 values D2

T2 sequence (P61169 whole entry): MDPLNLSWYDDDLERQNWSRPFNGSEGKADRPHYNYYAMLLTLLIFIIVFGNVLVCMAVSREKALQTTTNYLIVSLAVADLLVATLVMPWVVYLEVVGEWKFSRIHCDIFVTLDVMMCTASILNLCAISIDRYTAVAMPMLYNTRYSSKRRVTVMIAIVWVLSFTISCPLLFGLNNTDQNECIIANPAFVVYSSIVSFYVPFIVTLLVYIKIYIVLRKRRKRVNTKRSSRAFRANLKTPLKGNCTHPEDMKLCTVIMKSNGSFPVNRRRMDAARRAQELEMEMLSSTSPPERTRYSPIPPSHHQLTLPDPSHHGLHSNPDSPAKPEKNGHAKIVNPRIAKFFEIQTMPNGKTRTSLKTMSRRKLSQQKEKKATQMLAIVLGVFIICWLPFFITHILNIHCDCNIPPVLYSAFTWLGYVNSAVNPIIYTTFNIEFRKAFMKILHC
T1 sequence (P14842 whole entry): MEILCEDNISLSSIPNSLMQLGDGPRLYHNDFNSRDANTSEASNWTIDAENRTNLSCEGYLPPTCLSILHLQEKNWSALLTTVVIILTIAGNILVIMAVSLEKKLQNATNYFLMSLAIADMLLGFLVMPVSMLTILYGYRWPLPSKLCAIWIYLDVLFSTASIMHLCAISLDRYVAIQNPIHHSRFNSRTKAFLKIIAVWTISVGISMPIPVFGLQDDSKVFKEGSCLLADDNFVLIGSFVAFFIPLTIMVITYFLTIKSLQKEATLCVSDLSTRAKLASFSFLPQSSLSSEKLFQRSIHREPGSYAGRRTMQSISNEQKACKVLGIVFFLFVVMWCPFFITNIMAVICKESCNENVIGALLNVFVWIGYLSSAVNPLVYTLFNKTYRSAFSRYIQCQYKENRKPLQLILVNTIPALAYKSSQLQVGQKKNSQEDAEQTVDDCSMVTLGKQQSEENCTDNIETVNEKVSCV

Q: For CN(C)C(=O)c1ccc2c(c1)c(C1CCN(CCN3CCNC3=O)CC1)cn2-c1ccc(F)cc1 [Compound 7b, N,N-Dimethyl-1-(4-fluorophenyl)-3-[1-[2-(2-imidazolidinon-1-yl)ethyl]4-piperidinyl]-1H-indole-5-carboxamide], which IC50 (α1-adrenoceptors) is on record?
A: 5.4 nM

Q: What about the IC50 [1, 2] of the same compound?
A: 18 nM

Q: And the IC50 (dopamine D2 receptors; [3])?
A: 170 nM

Q: And the melting point?
A: 172 to 176 °C

Q: With CN(C)Cc1ccc2c(c1)c(C1CCN(CCN3CCNC3=O)CC1)cn2-c1ccc(F)cc1 [Compound 7c, 1-[2-[4-[5-Dimethylaminomethyl-1-(4-fluorophenyl)-1H-indol-3-yl]-1-piperidinyl]ethyl]-2-imidazolidinon] as the compound, how does the IC50 (α1-adrenoceptors) read?
A: 1.3 nM

Q: And the IC50 [1, 2]?
A: 50 nM

Q: What about the IC50 (dopamine D2 receptors; [3]) of the same compound?
A: 180 nM

Q: And the melting point?
A: 166 to 174 °C

Q: Which IC50 (α1-adrenoceptors) does the source give for CN(C)Cc1ccc2c(c1)c(C1=CCN(CCN3CCNC3=O)CC1)cn2-c1ccc(F)cc1 [Compound 7d, 1-[2-[4-[5-Dimethylaminomethyl-1-(4-fluorophenyl)-1H-indol-3-yl]-1,2,3,6-tetrahydropyridin-1-yl]ethyl]-2-imidazolidinon] here?
A: 0.53 nM

Q: And the IC50 [1]?
A: 80 nM

Q: And the IC50 (dopamine D2 receptors)?
A: 35 nM

Q: What about the melting point of the same compound?
A: 146 to 148 °C

Q: With COc1cc2nc(N3CCN(C(=O)c4ccco4)CC3)nc(N)c2cc1OC [Prazosin, reference compound] as the compound, how does the IC50 (α1-adrenoceptors) read?
A: 0.36 nM

Q: With O=C1NCCN1CCN1CCC(c2cn(-c3ccc(F)cc3)c3ccc(Cl)cc23)CC1 [Sertindole, sertindole, reference compound] as the compound, how does the IC50 (α1-adrenoceptors) read?
A: 3.4 nM
